Laboratory results published in patent publication US20240246942A1, “KINASE INHIBITORS FOR THE TREATMENT OF NEURODEGENERATIVE DISEASES” (priority 2020, published 2024).

Key:
Assay in all cases: biochemical
[1] = molecular target: T1, panel of 374 wild-type kinases (Homo sapiens, UniProt O43318); conditions: read-out: % Enzyme Activity (relative to DMSO controls), kinase TAK1
T1 construct: purchased Reaction Biology Corporation
T1 sequence (O43318 1-606): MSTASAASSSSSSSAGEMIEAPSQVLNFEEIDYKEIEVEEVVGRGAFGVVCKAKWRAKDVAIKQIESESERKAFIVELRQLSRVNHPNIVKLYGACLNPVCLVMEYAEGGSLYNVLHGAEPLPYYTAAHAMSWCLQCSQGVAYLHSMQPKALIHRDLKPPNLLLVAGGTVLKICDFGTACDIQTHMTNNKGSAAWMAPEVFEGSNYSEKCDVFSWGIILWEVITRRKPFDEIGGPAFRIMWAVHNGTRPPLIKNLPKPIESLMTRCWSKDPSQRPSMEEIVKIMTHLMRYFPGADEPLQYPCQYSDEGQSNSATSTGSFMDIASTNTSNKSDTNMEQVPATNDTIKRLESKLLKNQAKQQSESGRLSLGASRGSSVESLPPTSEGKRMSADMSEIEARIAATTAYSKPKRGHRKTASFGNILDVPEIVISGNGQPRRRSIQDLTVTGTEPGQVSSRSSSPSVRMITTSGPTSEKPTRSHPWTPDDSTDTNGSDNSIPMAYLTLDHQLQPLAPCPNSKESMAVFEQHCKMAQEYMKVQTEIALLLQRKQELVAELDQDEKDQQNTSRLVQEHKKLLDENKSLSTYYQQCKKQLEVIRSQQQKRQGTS

[2] = molecular target: T2, panel of 374 wild-type kinases (Homo sapiens, UniProt P27448); conditions: read-out: % Enzyme Activity (relative to DMSO controls), MARK3
T2 construct: purchased Reaction Biology Corporation

[3] = molecular target: T3, panel of 374 wild-type kinases (Homo sapiens, UniProt P41240); conditions: read-out: % Enzyme Activity (relative to DMSO controls), CSK
T3 construct: purchased Reaction Biology Corporation

[4] = molecular target: T4, panel of 374 wild-type kinases (Homo sapiens, UniProt Q02763); conditions: read-out: % Enzyme Activity (relative to DMSO controls), kinase TIE2/TEK
T4 construct: purchased Reaction Biology Corporation

[5] = molecular target: T5, panel of 374 wild-type kinases (Homo sapiens, UniProt Q08881); conditions: read-out: % Enzyme Activity (relative to DMSO controls), ITK
T5 construct: purchased Reaction Biology Corporation
T5 sequence (Q08881 1-620): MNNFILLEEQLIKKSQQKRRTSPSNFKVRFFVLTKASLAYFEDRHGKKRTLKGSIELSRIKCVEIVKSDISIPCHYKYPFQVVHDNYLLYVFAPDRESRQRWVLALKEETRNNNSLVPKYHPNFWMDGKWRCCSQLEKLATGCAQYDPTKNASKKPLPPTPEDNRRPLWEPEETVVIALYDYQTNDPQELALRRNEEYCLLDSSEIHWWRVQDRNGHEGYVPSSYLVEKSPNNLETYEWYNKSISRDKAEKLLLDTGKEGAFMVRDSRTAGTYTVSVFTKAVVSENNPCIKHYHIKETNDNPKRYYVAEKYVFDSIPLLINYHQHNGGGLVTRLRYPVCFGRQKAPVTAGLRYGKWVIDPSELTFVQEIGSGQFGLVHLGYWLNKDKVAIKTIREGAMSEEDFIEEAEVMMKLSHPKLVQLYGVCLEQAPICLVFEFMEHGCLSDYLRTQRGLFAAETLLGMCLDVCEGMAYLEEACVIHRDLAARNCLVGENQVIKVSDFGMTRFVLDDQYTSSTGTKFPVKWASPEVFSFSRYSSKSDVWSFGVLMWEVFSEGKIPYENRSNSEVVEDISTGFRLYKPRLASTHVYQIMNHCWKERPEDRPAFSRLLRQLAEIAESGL

[6] = molecular target: T6, panel of 374 wild-type kinases (Homo sapiens, UniProt Q15831); conditions: read-out: % Enzyme Activity (relative to DMSO controls), LKB1
T6 construct: purchased Reaction Biology Corporation
T6 sequence (Q15831 1-433): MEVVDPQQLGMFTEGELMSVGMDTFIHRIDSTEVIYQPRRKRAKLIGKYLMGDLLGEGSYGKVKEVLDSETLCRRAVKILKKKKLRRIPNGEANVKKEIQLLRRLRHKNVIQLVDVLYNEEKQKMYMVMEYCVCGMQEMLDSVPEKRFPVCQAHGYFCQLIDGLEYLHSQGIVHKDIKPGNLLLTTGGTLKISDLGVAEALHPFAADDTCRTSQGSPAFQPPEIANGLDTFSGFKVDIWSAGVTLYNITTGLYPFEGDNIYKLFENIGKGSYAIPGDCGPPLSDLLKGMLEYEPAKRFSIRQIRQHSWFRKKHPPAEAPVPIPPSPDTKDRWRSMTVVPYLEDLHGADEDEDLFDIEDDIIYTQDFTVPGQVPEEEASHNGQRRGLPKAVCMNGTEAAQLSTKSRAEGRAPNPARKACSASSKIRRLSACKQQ

[7] = molecular target: T7, panel of 374 wild-type kinases (Homo sapiens, UniProt Q9H0K1); conditions: read-out: % Enzyme Activity (relative to DMSO controls), kinase SIK2
T7 construct: purchased Reaction Biology Corporation

[8] = molecular target: T8, panel of 374 wild-type kinases (Homo sapiens, UniProt Q9HBY8); conditions: read-out: % Enzyme Activity (relative to DMSO controls), kinase SGK2
T8 construct: purchased Reaction Biology Corporation
T8 sequence (Q9HBY8 whole entry): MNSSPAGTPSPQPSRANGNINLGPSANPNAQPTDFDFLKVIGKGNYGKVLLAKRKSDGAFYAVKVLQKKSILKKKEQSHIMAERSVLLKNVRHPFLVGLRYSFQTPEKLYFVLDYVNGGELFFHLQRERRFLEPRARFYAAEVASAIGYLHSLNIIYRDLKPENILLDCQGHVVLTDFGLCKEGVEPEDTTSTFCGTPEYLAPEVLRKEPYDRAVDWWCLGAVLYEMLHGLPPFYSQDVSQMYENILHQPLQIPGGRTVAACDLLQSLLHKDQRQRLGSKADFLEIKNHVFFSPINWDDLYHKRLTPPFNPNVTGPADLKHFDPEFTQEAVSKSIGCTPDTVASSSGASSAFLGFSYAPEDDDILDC

T3 sequence (P41240 whole entry): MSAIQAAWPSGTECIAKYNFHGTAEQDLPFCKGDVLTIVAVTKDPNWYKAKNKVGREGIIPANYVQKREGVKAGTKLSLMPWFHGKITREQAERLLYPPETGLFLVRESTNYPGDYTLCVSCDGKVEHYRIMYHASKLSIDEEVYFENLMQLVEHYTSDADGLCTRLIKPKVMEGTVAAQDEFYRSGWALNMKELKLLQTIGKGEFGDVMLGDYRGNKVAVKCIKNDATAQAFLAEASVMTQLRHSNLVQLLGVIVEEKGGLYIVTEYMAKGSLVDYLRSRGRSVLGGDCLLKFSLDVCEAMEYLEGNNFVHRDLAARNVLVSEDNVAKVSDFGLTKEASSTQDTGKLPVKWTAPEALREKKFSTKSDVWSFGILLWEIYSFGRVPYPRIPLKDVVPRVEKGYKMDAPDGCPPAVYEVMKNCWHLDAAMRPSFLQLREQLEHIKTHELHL
T2 sequence (P27448 whole entry): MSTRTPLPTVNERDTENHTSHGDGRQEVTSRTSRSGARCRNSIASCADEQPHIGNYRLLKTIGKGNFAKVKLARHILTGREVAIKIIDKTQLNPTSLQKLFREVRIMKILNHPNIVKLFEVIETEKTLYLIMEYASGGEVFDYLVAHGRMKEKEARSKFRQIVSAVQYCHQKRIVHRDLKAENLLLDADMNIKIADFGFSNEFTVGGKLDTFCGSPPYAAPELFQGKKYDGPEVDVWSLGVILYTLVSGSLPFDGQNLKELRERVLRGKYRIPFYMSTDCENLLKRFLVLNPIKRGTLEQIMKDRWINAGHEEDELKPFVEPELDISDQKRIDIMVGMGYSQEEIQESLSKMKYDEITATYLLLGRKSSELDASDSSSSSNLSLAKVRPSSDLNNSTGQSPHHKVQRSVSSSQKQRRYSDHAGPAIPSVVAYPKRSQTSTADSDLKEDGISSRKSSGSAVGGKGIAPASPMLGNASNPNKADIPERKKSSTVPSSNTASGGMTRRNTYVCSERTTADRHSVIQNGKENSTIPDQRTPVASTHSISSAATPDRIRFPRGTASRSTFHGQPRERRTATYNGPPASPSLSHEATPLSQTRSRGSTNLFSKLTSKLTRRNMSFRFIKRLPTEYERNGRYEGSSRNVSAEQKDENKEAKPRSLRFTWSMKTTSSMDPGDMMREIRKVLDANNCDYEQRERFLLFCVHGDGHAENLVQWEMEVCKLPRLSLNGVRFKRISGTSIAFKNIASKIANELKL
T4 sequence (Q02763 23-1124): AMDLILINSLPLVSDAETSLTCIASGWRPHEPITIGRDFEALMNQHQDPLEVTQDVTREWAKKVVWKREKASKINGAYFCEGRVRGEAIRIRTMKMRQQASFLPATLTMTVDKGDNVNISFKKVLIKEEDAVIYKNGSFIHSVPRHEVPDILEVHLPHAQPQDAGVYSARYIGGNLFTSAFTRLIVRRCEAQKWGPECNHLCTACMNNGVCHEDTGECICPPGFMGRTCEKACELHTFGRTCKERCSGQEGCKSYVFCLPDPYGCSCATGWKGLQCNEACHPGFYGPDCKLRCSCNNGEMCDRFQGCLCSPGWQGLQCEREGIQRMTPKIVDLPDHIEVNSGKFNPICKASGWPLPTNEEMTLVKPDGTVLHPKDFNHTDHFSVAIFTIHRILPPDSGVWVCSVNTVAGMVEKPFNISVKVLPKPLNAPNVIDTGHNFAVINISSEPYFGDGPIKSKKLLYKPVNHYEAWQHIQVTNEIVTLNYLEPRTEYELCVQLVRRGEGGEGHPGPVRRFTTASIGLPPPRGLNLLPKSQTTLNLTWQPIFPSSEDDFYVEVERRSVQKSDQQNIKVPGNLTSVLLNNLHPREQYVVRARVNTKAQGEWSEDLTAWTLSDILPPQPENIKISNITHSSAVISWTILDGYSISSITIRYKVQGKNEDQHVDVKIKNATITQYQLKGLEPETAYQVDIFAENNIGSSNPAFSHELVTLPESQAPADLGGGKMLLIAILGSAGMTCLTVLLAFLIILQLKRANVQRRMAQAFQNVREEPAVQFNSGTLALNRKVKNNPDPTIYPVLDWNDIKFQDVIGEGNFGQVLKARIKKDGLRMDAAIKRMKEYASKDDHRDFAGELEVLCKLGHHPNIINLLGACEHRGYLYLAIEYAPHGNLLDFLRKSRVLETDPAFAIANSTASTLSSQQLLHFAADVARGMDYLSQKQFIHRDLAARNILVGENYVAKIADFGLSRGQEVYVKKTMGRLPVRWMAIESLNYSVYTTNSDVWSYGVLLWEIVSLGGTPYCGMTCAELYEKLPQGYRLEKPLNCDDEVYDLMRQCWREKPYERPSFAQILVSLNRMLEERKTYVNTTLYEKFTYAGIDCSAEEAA
T7 sequence (Q9H0K1 whole entry): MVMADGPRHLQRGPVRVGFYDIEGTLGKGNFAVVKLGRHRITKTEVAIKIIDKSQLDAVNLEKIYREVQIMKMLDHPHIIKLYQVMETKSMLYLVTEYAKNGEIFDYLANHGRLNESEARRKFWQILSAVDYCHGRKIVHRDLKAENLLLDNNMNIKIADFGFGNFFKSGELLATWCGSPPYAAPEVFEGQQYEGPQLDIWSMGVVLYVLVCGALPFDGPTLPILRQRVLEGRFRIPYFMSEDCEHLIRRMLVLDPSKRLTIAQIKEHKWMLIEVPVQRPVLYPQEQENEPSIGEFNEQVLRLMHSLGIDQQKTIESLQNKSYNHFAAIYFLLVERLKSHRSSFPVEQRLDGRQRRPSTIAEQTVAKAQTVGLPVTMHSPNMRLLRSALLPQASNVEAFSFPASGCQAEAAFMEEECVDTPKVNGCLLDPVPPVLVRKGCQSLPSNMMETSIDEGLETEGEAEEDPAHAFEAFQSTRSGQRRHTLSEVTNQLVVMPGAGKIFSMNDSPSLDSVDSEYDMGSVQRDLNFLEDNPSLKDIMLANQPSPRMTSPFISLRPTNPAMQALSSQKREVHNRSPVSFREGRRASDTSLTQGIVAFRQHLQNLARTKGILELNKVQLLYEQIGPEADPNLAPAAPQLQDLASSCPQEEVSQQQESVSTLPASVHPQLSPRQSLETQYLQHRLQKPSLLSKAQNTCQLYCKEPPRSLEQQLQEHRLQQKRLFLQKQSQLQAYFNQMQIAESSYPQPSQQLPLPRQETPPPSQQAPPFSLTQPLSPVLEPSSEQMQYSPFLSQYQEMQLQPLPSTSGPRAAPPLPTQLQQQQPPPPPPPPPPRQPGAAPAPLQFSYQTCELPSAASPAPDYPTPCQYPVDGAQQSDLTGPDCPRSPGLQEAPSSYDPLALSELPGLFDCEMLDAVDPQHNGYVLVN

Row | SMILES | remaining activity at 5 µM [1] [%] | remaining activity at 5 µM [2] [%] | remaining activity at 5 µM [3] [%] | remaining activity at 5 µM [4] [%] | remaining activity at 5 µM [5] [%] | remaining activity at 5 µM [6] [%] | remaining activity at 5 µM [7] [%] | remaining activity at 5 µM [8] [%] | remaining activity at 10 µM ([1]; 10 uM) [%] | remaining activity at 10 µM ([2]; 10 uM) [%] | remaining activity at 10 µM ([3]; 10 uM) [%] | remaining activity at 10 µM ([4]; 10 uM) [%] | remaining activity at 10 µM ([5]; 10 uM) [%] | remaining activity at 10 µM ([6]; 10 uM) [%] | remaining activity at 10 µM ([7]; 10 uM) [%] | remaining activity at 10 µM ([8]; 10 uM) [%]
1 | O=C(Nc1cnn(-c2csc(C(=O)NC3COC3)c2)c1)Nc1c(F)cccc1Cl [Compound 25, 4-(4-(3-(2-chloro-6-fluorophenyl)ureido)-1H-pyrazol-1-yl)-N-(oxetan-3-yl)thiophene-2-carboxamide] | 109 | 99.3 | 97.5 | 105 | 92.8 | 94.7 | 95.8 | 88.6 |  |  |  |  |  |  |  | 
2 | O=C(Nc1cnn(-c2csc(C(=O)NC3COC3)c2)c1)Nc1ccccc1Cl [Compound 17, 4-(4-(3-(2-chlorophenyl)ureido)-1H-pyrazol-1-yl)-N-(oxetan-3-yl)thiophene-2-carboxamide] | 98 | 98.2 | 99.2 | 100 | 107 | 118 | 97 | 101 |  |  |  |  |  |  |  | 
3 | Cc1sc(C(=O)NC2COC2)cc1-n1cc(NC(=O)Nc2c(F)cccc2Cl)cn1 [Compound 27, 4-(4-(3-(2-chloro-6-fluorophenyl)ureido)-1H-pyrazol-1-yl)-5-methyl-N-(oxetan-3-yl)thiophene-2-carboxamide] |  |  |  |  |  |  |  |  | 98.4 | 102 | 98 | 86.6 | 94.4 | 97.6 | 89.8 | 97.2
